Source: ChEMBL document CHEMBL1201862, “PubChem BioAssay data set” (2004)
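How tested: cells in 96-well plates exposed to compound for 48 hours at five concentrations. Abbreviation: GI50, concentration required for 50% inhibition of growth.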 The source made the active and inactive calls. Cut-off read from the data, not from the text of the source: active = GI50 up to about 1.1 µM and inactive = higher.

How the values were obtained:
Assay in all cases: DTP human tumour cell line panel, 48 h
[1] = tested on: K562
[2] = tested on: DU-145
[3] = tested on: MCF7
[4] = tested on: Hs-578T
[5] = tested on: OVCAR-3
[6] = tested on: M14
[7] = tested on: NCI-H23
[8] = tested on: HCC 2998
[9] = tested on: PC-3
[10] = tested on: SN12C
[11] = tested on: MDA-MB-231
[12] = tested on: SK-MEL-5
[13] = tested on: TK-10
[14] = tested on: SF-268
[15] = tested on: SF-539
[16] = tested on: UACC-257
[17] = tested on: HL-60
[18] = tested on: SK-MEL-28
[19] = tested on: RXF 393
[20] = tested on: SR
[21] = tested on: OVCAR-8
[22] = tested on: HCT-116
[23] = tested on: T47D
[24] = tested on: SK-OV-3
[25] = tested on: OVCAR-4
[26] = tested on: CAKI-1
[27] = tested on: MDA-MB-435
[28] = tested on: HCT-15
[29] = tested on: EKVX
[30] = tested on: HOP-62
[31] = tested on: SNB-75
[32] = tested on: NCI-H522
[33] = tested on: Malme-3M
[34] = tested on: OVCAR-5
[35] = tested on: HT-29
[36] = tested on: U-251
[37] = tested on: 786-0
[38] = tested on: SW-620
[39] = tested on: ACHN
[40] = tested on: BT-549
[41] = tested on: LOX IMVI
[42] = tested on: MOLT-4
[43] = tested on: NCI/ADR-RES
[44] = tested on: NCI-H460
[45] = tested on: COLO 205
[46] = tested on: KM12
[47] = tested on: IGROV-1
[48] = tested on: UO-31
[49] = tested on: CCRF-CEM
[50] = tested on: SF-295
[51] = tested on: A549
[52] = tested on: SK-MEL-2
[53] = tested on: RPMI-8226
[54] = tested on: UACC-62
[55] = tested on: NCI-H226
[56] = tested on: A498
[57] = tested on: MDA-N
[58] = tested on: HOP-92
[59] = tested on: SNB-19

In the case of COC1=C(C(c2cc(OC)c(OC)c(OC)c2)c2cc3c(cc2OC)OCO3)C(=O)OC1 (stereo not drawn), the GI50 [1] is reported as 15000 nM (inactive), the GI50 [2] is reported as 29200 nM (inactive) and the GI50 [3] is reported as 29000 nM (inactive). For the same compound, the GI50 [4] was 9180 nM (inactive), the GI50 [5] was 22300 nM (inactive) and the GI50 [6] was 17900 nM (inactive). The GI50 [7] was 24800 nM (inactive), the GI50 [8] was 44100 nM (inactive) and the GI50 [9] was 15700 nM (inactive). The GI50 [10] was 34800 nM (inactive), the GI50 [11] was 28600 nM (inactive) and the GI50 [12] was 22800 nM (inactive). The GI50 [13] was > 44000 nM (inactive), the GI50 [14] was 24600 nM (inactive) and the GI50 [15] was 15400 nM (inactive). The GI50 [16] was > 34400 nM (inactive), the GI50 [17] was 8550 nM (inactive) and the GI50 [18] was 12700 nM (inactive). The GI50 [19] was 11700 nM (inactive), the GI50 [20] was 11100 nM (inactive) and the GI50 [21] was 27000 nM (inactive). The GI50 [22] was 7010 nM (inactive), the GI50 [23] was > 100000 nM (inactive) and the GI50 [24] was 41200 nM (inactive). The GI50 [25] was 30400 nM (inactive), the GI50 [26] was > 48500 nM (inactive) and the GI50 [27] was 4660 nM (inactive). The GI50 [28] was 20400 nM, the GI50 [29] was 28400 nM (inactive) and the GI50 [30] was 24800 nM (inactive). For the same compound, the GI50 [31] was > 37900 nM (inactive), the GI50 [32] was 7800 nM (inactive) and the GI50 [33] was 31700 nM (inactive). For the same compound, the GI50 [34] was 34400 nM (inactive), the GI50 [35] was 20500 nM (inactive) and the GI50 [36] was 33300 nM (inactive). For the same compound, the GI50 [37] was 26100 nM (inactive), the GI50 [38] was 27000 nM (inactive) and the GI50 [39] was 26700 nM (inactive). The GI50 [40] was 47200 nM (inactive), the GI50 [41] was 10000 nM (inactive) and the GI50 [42] was 44200 nM (inactive). The GI50 [43] was 5690 nM (inactive), the GI50 [44] was 29200 nM (inactive) and the GI50 [45] was 23800 nM (inactive). The GI50 [46] was 11600 nM (inactive), the GI50 [47] was 29400 nM (inactive) and the GI50 [48] was 14200 nM (inactive). The GI50 [49] was 21400 nM (inactive), the GI50 [50] was 15100 nM (inactive) and the GI50 [51] was 20100 nM (inactive). For the same compound, the GI50 [52] was 45200 nM (inactive), the GI50 [53] was 46000 nM (inactive) and the GI50 [54] was 10600 nM (inactive). The GI50 [55] was 28400 nM (inactive), the GI50 [56] was 14900 nM (inactive) and the GI50 [57] was 3940 nM (inactive). For the same compound, the GI50 [58] was 58900 nM (inactive) and the GI50 [59] was 30700 nM (inactive).

For CC1=C2C(=C[C@@](C)(CO)[C@@H]2O)C(=O)[C@](C)(O)C12CC2 [ILLUDIN], the GI50 [1] was 12 nM (active), the GI50 [2] was 18.1 nM (active) and the GI50 [3] was 2.84 nM (active). The GI50 [4] was 16.9 nM (active), the GI50 [5] was 18.7 nM (active) and the GI50 [6] was 8.91 nM (active). The GI50 [7] was 5.2 nM (active), the GI50 [8] was 13 nM (active) and the GI50 [9] was 14.3 nM (active). For the same compound, the GI50 [10] was 19 nM (active), the GI50 [11] was 21.3 nM (active) and the GI50 [12] was 5.96 nM (active). The GI50 [13] was 22.3 nM (active), the GI50 [14] was 2.93 nM (active) and the GI50 [15] was 5.06 nM (active). The GI50 [16] was 14.5 nM (active), the GI50 [17] was 4.27 nM (active) and the GI50 [18] was 16.7 nM (active). For the same compound, the GI50 [19] was 6.64 nM (active), the GI50 [20] was 1.82 nM (active) and the GI50 [21] was 13.3 nM (active). The GI50 [22] was 3.86 nM (active), the GI50 [23] was 12.3 nM (active) and the GI50 [24] was 6.12 nM (active). The GI50 [25] was 6.67 nM (active), the GI50 [26] was 15.8 nM (active) and the GI50 [27] was 15.6 nM (active). For the same compound, the GI50 [28] was 6.75 nM, the GI50 [29] was 27 nM (active) and the GI50 [30] was 7.05 nM (active). The GI50 [31] was 13.8 nM (active), the GI50 [32] was 3.52 nM (active) and the GI50 [33] was 8.89 nM (active). The GI50 [34] was 10.6 nM (active), the GI50 [35] was 3.41 nM (active) and the GI50 [36] was 2.13 nM (active). The GI50 [37] was 3.53 nM (active), the GI50 [38] was 3.05 nM (active) and the GI50 [39] was 8.49 nM (active). For the same compound, the GI50 [40] was 6.58 nM (active), the GI50 [41] was 3.13 nM (active) and the GI50 [42] was 7.31 nM (active). The GI50 [43] was 7.4 nM (active), the GI50 [44] was 1.47 nM (active) and the GI50 [45] was 7.71 nM (active). The GI50 [46] was 21.2 nM (active), the GI50 [47] was 15.5 nM (active) and the GI50 [48] was 14.7 nM (active). The GI50 [49] was 16.9 nM (active), the GI50 [50] was 2.51 nM (active) and the GI50 [51] was 4.58 nM (active). The GI50 [52] was 14.3 nM (active), the GI50 [53] was 855 nM (active) and the GI50 [54] was 12.9 nM (active). The GI50 [55] was 23.1 nM (active), the GI50 [56] was 10.4 nM (active) and the GI50 [57] was < 11.7 nM (active). The GI50 [58] was 23.2 nM (active) and the GI50 [59] was 28.2 nM (active).
